Test systems include HCT-15 colon; MDA-MB-435; IGROV1 ovarian; TK-10 renal; DU-145 prostate; HL-60(TB) leukemia; 786-0 renal; OVCAR-8 ovarian; SR leukemia; SF-295 CNS.
Experiment in all cases: DTP human tumour cell line panel, 48 h

Values joined by “and” are separate entries in the source; they are usually repeats but may differ in a detail not shown here. Equal entries are not always repeated.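 1) Cells in 96-well plates. 2) Compound, 48 h, 5 concentrations. 3) Linear interpolation between surrounding doses. 4) Unreached endpoint = highest concentration. GI50 marks 50% less growth. The concentration for full growth arrest is given as TGI.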

As for `CCOC(=O)N1CCN(c2nc(Nc3cc(C)[nH]n3)c3ccccc3n2)CC1`, the GI50 (as a rule, the concentration that inhibits growth by half) was 0.992 µM in the test on HCT-15 colon; 0.829 µM in the test on MDA-MB-435; 0.638 µM in the test on IGROV1 ovarian; 0.909 µM in the test on TK-10 renal; 3.89 µM in the test on DU-145 prostate; 12 µM in the test on HL-60(TB) leukemia. Further, the GI50 in the test with 786-0 renal is 1.95 µM; with OVCAR-8 ovarian it was 8.63 µM; with SR leukemia it was 0.446 µM; in the test on SF-295 CNS it was 5.98 µM. The TGI – broadly, the concentration at which net growth stops – with HCT-15 colon was above 100 µM; with MDA-MB-435, 62.3 µM; in the test with IGROV1 ovarian, 35.5 µM; in the test on TK-10 renal it was 35.1 µM; in the test on DU-145 prostate, 40 µM; in the test with HL-60(TB) leukemia, 34.1 µM. In addition, the TGI in the test with 786-0 renal was 14.2 µM; with OVCAR-8 ovarian it was 63.2 µM; with SR leukemia, 20.2 µM; in the test on SF-295 CNS it was above 100 µM.
`COc1cc(/C=C2\C(=O)Nc3cc(C)c(O)cc32)cc(OC)c1OC`: the GI50 in the test with HCT-15 colon is 2.84 µM; with MDA-MB-435 it was 1.52 µM; with IGROV1 ovarian it was 5.35 µM; in the test on TK-10 renal, 12.8 µM; in the test with DU-145 prostate, 3.67 µM; in the test with HL-60(TB) leukemia it was 1.74 µM. The GI50 in the test on 786-0 renal was 10.4 µM; with OVCAR-8 ovarian, 7.33 µM; with SR leukemia it was 0.857 µM; in the test with SF-295 CNS it was 6.03 µM. Also, the TGI in the test with HCT-15 colon turned out to be 14.5 µM; in the test on MDA-MB-435, 3.7 µM; in the test with IGROV1 ovarian, 21.3 µM; with TK-10 renal, 40.4 µM; in the test on DU-145 prostate it was 17.1 µM; with HL-60(TB) leukemia, 5.84 µM. Besides, the TGI is 23.5 µM in the test with 786-0 renal, above 67.3 µM in the test on OVCAR-8 ovarian, 5.84 µM with SR leukemia and 26.3 µM in the test on SF-295 CNS.
Take `CC(=O)O[C@H]1CC[C@@]2(C)C(=CC[C@H]3[C@@H]4CC[C@H](c5cc(C(F)(F)F)n(C(C)=O)n5)[C@@]4(C)CC[C@@H]32)C1`: the TGI in the test with HCT-15 colon stood at 21.8 µM; with MDA-MB-435, 21.4 µM; with IGROV1 ovarian, 16.4 µM; with TK-10 renal it was 14.9 µM; with DU-145 prostate, 23.5 µM; in the test with HL-60(TB) leukemia it was 15.4 µM. Also, the TGI is 17.7 µM with 786-0 renal, 24.8 µM with OVCAR-8 ovarian, 14.8 µM with SR leukemia and 17 µM with SF-295 CNS.
In the case of `CCCNNC(=O)/C=C/c1ccc(CNCCc2c(C)[nH]c3ccccc23)cc1`, the GI50 in the test on HCT-15 colon was 0.0954 µM; in the test on MDA-MB-435 it was 0.0494 µM; in the test on IGROV1 ovarian it was below 0.0339 µM; with TK-10 renal, 0.00506 µM; with DU-145 prostate it was 0.0322 µM; in the test on HL-60(TB) leukemia, 0.0123 µM. Also, the GI50 in the test with 786-0 renal is 0.057 µM; with OVCAR-8 ovarian, 0.0149 µM; in the test on SR leukemia, 0.0191 µM; in the test with SF-295 CNS it was 0.0471 µM. Further, the TGI in the test with HCT-15 colon came to 3.16 µM; in the test on MDA-MB-435, 0.464 µM; in the test with IGROV1 ovarian, 0.216 µM; in the test with TK-10 renal it was 0.133 µM; in the test on DU-145 prostate, 3.35 µM; in the test on HL-60(TB) leukemia, 3.96 µM. In addition, the TGI was found to be 1.2 µM in the test on 786-0 renal, 3.92 µM in the test with OVCAR-8 ovarian, 4.26 µM with SR leukemia and 0.171 µM in the test with SF-295 CNS.
Consider `FC(F)c1nc2ccccc2n1-c1nc(N2CCOCC2)nc(N2CCOCC2)n1`, for which the GI50 in the test on HCT-15 colon is 0.389 µM and 0.479 µM; in the test with MDA-MB-435 it was 0.397 µM and 0.429 µM; in the test on IGROV1 ovarian, 0.0621 µM and 0.165 µM; with TK-10 renal it was 0.129 µM and 0.205 µM; in the test with DU-145 prostate, 0.42 µM and 0.432 µM; with HL-60(TB) leukemia it was 0.153 µM and 0.351 µM. For the same molecule, the GI50 was 0.146 µM and 0.223 µM with 786-0 renal; 0.639 µM and 0.492 µM in the test on OVCAR-8 ovarian; 0.686 µM and 0.578 µM in the test on SR leukemia; 0.237 µM and 0.196 µM in the test on SF-295 CNS. Further, the TGI with HCT-15 colon is above 100 µM; in the test on IGROV1 ovarian, 0.369 µM and 0.593 µM; in the test with TK-10 renal, 0.907 µM and 1.58 µM; in the test on DU-145 prostate it was above 100 µM; in the test on HL-60(TB) leukemia, above 100 µM; in the test with 786-0 renal, 1.43 µM and 2.94 µM. For the same molecule, the TGI in the test on OVCAR-8 ovarian is above 100 µM; with SR leukemia, above 100 µM; with SF-295 CNS, 1.63 µM and 1.78 µM.
Consider `CCOC(=O)c1sc(-c2ccc(OS(=O)(=O)c3ccc(Br)s3)c(C=O)c2)nc1C`, for which the GI50 in the test on HCT-15 colon is 2.61 µM; in the test on MDA-MB-435 it was 2.47 µM; in the test on IGROV1 ovarian, 3.31 µM; in the test on TK-10 renal, 2.83 µM; in the test on DU-145 prostate, 6.81 µM; with HL-60(TB) leukemia, 3.66 µM. Moreover, the GI50 with 786-0 renal is 2.75 µM; in the test with OVCAR-8 ovarian, 3.26 µM; in the test with SR leukemia, 3.14 µM; in the test with SF-295 CNS, 5.08 µM. Moreover, the TGI was found to be 7.79 µM in the test on HCT-15 colon; 6.79 µM in the test with MDA-MB-435; 12.7 µM in the test on IGROV1 ovarian; 8.96 µM in the test with TK-10 renal; 24.8 µM in the test on DU-145 prostate; 19.7 µM in the test on HL-60(TB) leukemia. Also, the TGI is 8.16 µM in the test on 786-0 renal, 16.5 µM with OVCAR-8 ovarian, above 100 µM in the test on SR leukemia and 18.4 µM in the test with SF-295 CNS.
Consider `COc1cccc(-c2nc3sccn3c2-c2ccnc(NCCCNS(=O)(=O)c3cccc(F)c3)c2)c1`, for which the GI50 was 2.63 µM with HCT-15 colon; 2.29 µM with MDA-MB-435; 2.39 µM with IGROV1 ovarian; 3.8 µM in the test on TK-10 renal; 3.04 µM with DU-145 prostate; 1.84 µM in the test with HL-60(TB) leukemia. The GI50 was 4.49 µM with 786-0 renal, 2.42 µM with OVCAR-8 ovarian, 2.59 µM in the test on SR leukemia and 2.37 µM in the test with SF-295 CNS. The TGI with HCT-15 colon is above 100 µM; in the test on MDA-MB-435, 5.71 µM; in the test on IGROV1 ovarian, 9.77 µM; in the test on TK-10 renal it was 31.9 µM; in the test on DU-145 prostate, above 100 µM; in the test with HL-60(TB) leukemia, 4.91 µM. The TGI is above 100 µM in the test on 786-0 renal, 18.9 µM in the test with OVCAR-8 ovarian, above 100 µM in the test with SR leukemia and 7.48 µM with SF-295 CNS.
For the molecule `C=C1C(O)C2C(=C(CCc3ccccc3)C13CC3)C(=O)C(C)(CO)C2O` (centres undefined), the GI50 was above 100 µM in the test on HCT-15 colon; above 100 µM in the test with MDA-MB-435; above 100 µM in the test with IGROV1 ovarian; 57.4 µM in the test with TK-10 renal; above 100 µM with DU-145 prostate; 81.9 µM in the test on HL-60(TB) leukemia. Besides, the GI50 is above 100 µM with 786-0 renal, above 100 µM in the test with OVCAR-8 ovarian, 38.6 µM in the test on SR leukemia and above 100 µM in the test with SF-295 CNS. Moreover, the TGI in the test on HCT-15 colon, in the test on MDA-MB-435, with IGROV1 ovarian, with TK-10 renal, in the test with DU-145 prostate and in the test with HL-60(TB) leukemia was above 100 µM throughout. The TGI with 786-0 renal, in the test with OVCAR-8 ovarian, in the test with SR leukemia and with SF-295 CNS was above 100 µM in each case.
